Patent US20250304563A1, “ACTIVATORS OF EFFECTOR T CELLS” (Orum Therapeutics, Inc., priority 2022, published 2025)

Target: Cbl-b (36-427 aa truncated form, N-terminus Avi-tag) (Homo sapiens (Human), UniProt Q13191)
Assay: Cbl-b binding: TR-FRET displacement of BODIPY-FL probe
Description: Compounds were assessed for binding activity to Cbl-b by their ability to compete with and displace a probe comprised of BODIPY-FL fluorophore conjugated to a Cbl-b inhibitor (see Example 54 in WO2020264398). In the assay, a 36-427 aa truncated form of Cbl-b with an N-terminus Avi-tag was incubated 20 mM HEPES pH 7.5, 150 mM NaCl, 0.01% Triton X-100, 0.1% BSA, 0.5 mM TCEP buffer with streptavidin-terbium (Cisbio). After one hour of incubation at room temperature, 1 uM each of fluorescent probe and compound were combined with the reaction mixture. Compounds with Cbl-b binding activity competitively displace the fluorophore tagged inhibitor thereby disrupting the FRET signal from the terbium-BODIPY-FL complex. The reaction mixtures were incubated for one additional hour at room temperature to allow for competition between inhibitor and candidate compounds to occur. The time resolved FRET (TR-FRET) signal was then read at 520/620 […] (excitation/emission) using a Spectramax M5e plate reader (Molecular Devices) to measure probe displacement. Compounds with Cbl-b binding activity had decreased FRET signal owing to disruption of the terbium-BODIPY-FL FRET complex. Standard methods in PRISM were used to calculate the compound IC50 values from the experimental data.

Sequence of Cbl-b (36-427 aa truncated form, N-terminus Avi-tag) (Q13191 36-427): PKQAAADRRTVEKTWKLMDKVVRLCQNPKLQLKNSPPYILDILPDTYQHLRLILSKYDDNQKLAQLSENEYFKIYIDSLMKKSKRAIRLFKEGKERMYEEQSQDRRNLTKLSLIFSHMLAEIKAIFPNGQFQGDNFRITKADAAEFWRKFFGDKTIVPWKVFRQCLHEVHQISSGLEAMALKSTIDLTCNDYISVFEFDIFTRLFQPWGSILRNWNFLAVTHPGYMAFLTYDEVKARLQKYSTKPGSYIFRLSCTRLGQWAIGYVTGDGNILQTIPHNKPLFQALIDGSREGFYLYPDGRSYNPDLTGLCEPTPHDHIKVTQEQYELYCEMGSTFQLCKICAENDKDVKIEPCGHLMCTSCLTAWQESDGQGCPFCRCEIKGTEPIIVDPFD

SMILES	IC50
CCSc1cc(C2(Cc3nncn3C)COC2)cc(N2Cc3c(C#N)cc(CN4CCC[C@H](C)C4)cc3C2=O)n1 [Compound 144, 2-[6-(ethylsulfanyl)-4-{3-[(4-methyl-1,2,4-triazol-3-yl)methyl]oxetan-3-yl}pyridin-2-yl]-6-{[(3S)-3-methylpiperidin-1-yl]methyl}-1-oxo-3H-isoindole-4-carbonitrile; trifluoroacetic acid]	5.01 to 20 nM
CCSc1cc(C2(Cc3nncn3C)COC2)cc(N2Cc3c(C(N)=O)cc(CN4CCC[C@H](C)C4)cc3C2=O)n1 [Compound 145, 2-[6-(ethylsulfanyl)-4-{3-[(4-methyl-1,2,4-triazol-3-yl)methyl]oxetan-3-yl}pyridin-2-yl]-6-{[(3S)-3-methylpiperidin-1-yl]methyl}-1-oxo-3H-isoindole-4-carboxamide]	5.01 to 20 nM
CCNc1cc(C2(Cc3nncn3C)COC2)cc(N2Cc3cc(CN4CCC[C@H](C)C4)sc3C2=O)n1 [Compound 149, 5-[6-(ethylamino)-4-{3-[(4-methyl-1,2,4-triazol-3-yl)methyl]oxetan-3-yl}pyridin-2-yl]-2-{[(3S)-3-methylpiperidin-1-yl]methyl}-4H-thieno[2,3-c]pyrrol-6-one]	20 to 100 nM
C#CCOCC(c1cc2c(c(C(F)(F)F)c1)CN(c1cccc(C3(c4nncn4C)CC(C)C3)c1)C2=O)N1CCC[C@H](C)C1 (stereo partly drawn) [Compound 151, 6-{1-[(3S)-3-methylpiperidin-1-yl]-2-(prop-2-yn-1-yloxy)ethyl}-2-{3-[(1r,3s)-3-methyl-1-(4-methyl-1,2,4-triazol-3-yl)cyclobutyl]phenyl}-4-(trifluoromethyl)-3H-isoindol-1-one]	100 to 1000 nM
Cn1cnnc1CC1(c2cc(NCCC#N)nc(N3Cc4c(cc(CN5CCC(O)(C6CC6)CC5)cc4C(F)(F)F)C3=O)c2)COC1 [Compound 155, 3-[(6-{6-[(4-cyclopropyl-4-hydroxypiperidin-1-yl)methyl]-1-oxo-4-(trifluoromethyl)-3H-isoindol-2-yl}-4-{3-[(4-methyl-1,2,4-triazol-3-yl)methyl]oxetan-3-yl}pyridin-2-yl)amino]propanenitrile]	1 to 5 nM
C[C@H](Cc1nncn1C)c1cccc(NC(=O)c2ccc(C=O)c(C3CC3)n2)c1 [Compound 156, 6-cyclopropyl-5-formyl-N-{3-[(2R)-1-(4-methyl-1,2,4-triazol-3-yl)propan-2-yl]phenyl}pyridine-2-carboxamide]	20 to 100 nM
Cn1cnnc1CC1(c2cc(NCCC#N)nc(N3Cc4c(cc(C=O)cc4C(F)(F)F)C3=O)c2)COC1 [Compound 157, 3-({6-[6-formyl-1-oxo-4-(trifluoromethyl)-3H-isoindol-2-yl]-4-{3-[(4-methyl-1,2,4-triazol-3-yl)methyl]oxetan-3-yl}pyridin-2-yl}amino)propanenitrile]	20 to 100 nM
CSc1cc(CN2CCC[C@H](C)C2)cc2c1CN(c1cc(C3(Cc4nncn4C)COC3)cc(NCCN=[N+]=[N-])n1)C2=O [Compound 158, 2-{6-[(2-azidoethyl)amino]-4-{3-[(4-methyl-1,2,4-triazol-3-yl)methyl]oxetan-3-yl}pyridin-2-yl}-6-{[(3S)-3-methylpiperidin-1-yl]methyl}-4-(methylsulfanyl)-3H-isoindol-1-one; trifluoroacetic acid]	1 to 5 nM
CCSc1cc(C2(Cc3nncn3C)COC2)cc(N2Cc3c(C(C)=O)cc(CN4CCC[C@H](C)C4)cc3C2=O)n1 [Compound 159, 4-acetyl-2-[6-(ethylsulfanyl)-4-{3-[(4-methyl-1,2,4-triazol-3-yl)methyl]oxetan-3-yl}pyridin-2-yl]-6-{[(3S)-3-methylpiperidin-1-yl]methyl}-3H-isoindol-1-one; trifluoroacetic acid]	20 to 100 nM
Cn1cnnc1CC1(c2cc(NCCC#N)nc(N3Cc4c(cc(CN5CCC6(CC5)CC6CO)cc4C(F)(F)F)C3=O)c2)COC1 (stereo not drawn) [Compound 160, 3-{[6-(6-{[1-(hydroxymethyl)-6-azaspiro[2.5]octan-6-yl]methyl}-1-oxo-4-(trifluoromethyl)-3H-isoindol-2-yl)-4-{3-[(4-methyl-1,2,4-triazol-3-yl)methyl]oxetan-3-yl}pyridin-2-yl]amino}propanenitrile]	1 to 5 nM
Cn1cnnc1CC1(c2cc(NCCC#N)nc(N3Cc4c(cc(CN5C[C@H]6CCC(O)C[C@H]6C5)cc4C(F)(F)F)C3=O)c2)COC1 (stereo partly drawn) [Compound 161, 3-{[6-(6-{[(3aR,7aS)-5-hydroxy-octahydroisoindol-2-yl]methyl}-1-oxo-4-(trifluoromethyl)-3H-isoindol-2-yl)-4-{3-[(4-methyl-1,2,4-triazol-3-yl)methyl]oxetan-3-yl}pyridin-2-yl]amino}propanenitrile; trifluoroacetic acid]	1 to 5 nM
CN1CCOC2(CCN(Cc3cc4c(c(C(F)(F)F)c3)CN(c3cc(C5(Cc6nncn6C)COC5)cc(NCCC#N)n3)C4=O)C2)C1 (stereo not drawn) [Compound 163, 3-[(4-{3-[(4-methyl-1,2,4-triazol-3-yl)methyl]oxetan-3-yl}-6-[6-({9-methyl-6-oxa-2,9-diazaspiro[4.5]decan-2-yl}methyl)-1-oxo-4-(trifluoromethyl)-3H-isoindol-2-yl]pyridin-2-yl)amino]propanenitrile]	5.01 to 20 nM
Cn1cnnc1CC1(c2cc(NCCC#N)nc(N3Cc4c(cc(CN5CC[C@@H](CN6CCOCC6)C5)cc4C(F)(F)F)C3=O)c2)COC1 [Compound 165, 3-[(4-{3-[(4-methyl-1,2,4-triazol-3-yl)methyl]oxetan-3-yl}-6-(6-{[(3R)-3-(morpholin-4-ylmethyl)pyrrolidin-1-yl]methyl}-1-oxo-4-(trifluoromethyl)-3H-isoindol-2-yl)pyridin-2-yl)amino]propanenitrile; trifluoroacetic acid]	5.01 to 20 nM
CCSc1cc(C2(Cc3nncn3C)COC2)cc(N2Cc3c(C(=O)O)cc(CN4CCC[C@H](C)C4)cc3C2=O)n1 [Compound 166, 2-[6-(ethylsulfanyl)-4-{3-[(4-methyl-1,2,4-triazol-3-yl)methyl]oxetan-3-yl}pyridin-2-yl]-6-{[(3S)-3-methylpiperidin-1-yl]methyl}-1-oxo-3H-isoindole-4-carboxylic acid; trifluoroacetic acid]	5.01 to 20 nM
CCSc1cc(C2(Cc3nncn3C)COC2)cc(N2Cc3c(cc(CN4CCC[C@H](C)C4)cc3-c3nnn[nH]3)C2=O)n1 [Compound 167, 2-[6-(ethylsulfanyl)-4-{3-[(4-methyl-1,2,4-triazol-3-yl)methyl]oxetan-3-yl}pyridin-2-yl]-6-{[(3S)-3-methylpiperidin-1-yl]methyl}-4-(1H-1,2,3,4-tetrazol-5-yl)-3H-isoindol-1-one]	5.01 to 20 nM
CC1CC(c2cc(NCCN=[N+]=[N-])nc(N3Cc4c(cc(CN5CCC[C@H](C)C5)cc4C(F)(F)F)C3=O)c2)(c2nncn2C)C1 (stereo partly drawn) [Compound 168, 2-{6-[(2-azidoethyl)amino]-4-[(1r,3s)-3-methyl-1-(4-methyl-1,2,4-triazol-3-yl)cyclobutyl]pyridin-2-yl}-6-{[(3S)-3-methylpiperidin-1-yl]methyl}-4-(trifluoromethyl)-3H-isoindol-1-one]	20 to 100 nM
CCNc1cc([C@]2(c3nncn3C)C[C@H](C)C2)cc(N2Cc3c(cc(CN4CCC[C@H](C)C4)cc3S(C)(=O)=O)C2=O)n1 [Compound 172, 2-[6-(ethylamino)-4-[(1r,3s)-3-methyl-1-(4-methyl-1,2,4-triazol-3-yl)cyclobutyl]pyridin-2-yl]-4-methanesulfonyl-6-{[(3S)-3-methylpiperidin-1-yl]methyl}-3H-isoindol-1-one; trifluoroacetic acid]	100 to 1000 nM
C[C@H]1CCCN(Cc2cc(C=O)c3c(c2)C(=O)N(c2cc(C4(Cc5nncn5C)COC4)cc(NCCC#N)n2)C3)C1 [Compound 177, 3-{[6-(4-formyl-6-{[(3S)-3-methylpiperidin-1-yl]methyl}-1-oxo-3H-isoindol-2-yl)-4-{3-[(4-methyl-1,2,4-triazol-3-yl)methyl]oxetan-3-yl}pyridin-2-yl]amino}propanenitrile]	1 to 5 nM
CCNc1cc(C2(c3nncn3C)CC(C)C2)cc(N2Cc3c(cc(CN4CCC[C@H](C)C4)cc3[S+](C)[O-])C2=O)n1 (stereo partly drawn) [Compound 178, 2-[6-(ethylamino)-4-[(1r,3s)-3-methyl-1-(4-methyl-1,2,4-triazol-3-yl)cyclobutyl]pyridin-2-yl]-4-methanesulfinyl-6-{[(3S)-3-methylpiperidin-1-yl]methyl}-3H-isoindol-1-one]	100 to 1000 nM
CCNc1cc(C2(Cc3nncn3C)COC2)cc(N2Cc3c(cc(CN4CCC[C@H](C)C4)cc3S(C)(=O)=O)C2=O)n1 [Compound 179, 2-[6-(ethylamino)-4-{3-[(4-methyl-1,2,4-triazol-3-yl)methyl]oxetan-3-yl}pyridin-2-yl]-4-methanesulfonyl-6-{[(3S)-3-methylpiperidin-1-yl]methyl}-3H-isoindol-1-one; formic acid]	100 to 1000 nM
CCNc1cc(C2(Cc3nncn3C)COC2)cc(N2Cc3c(cc(CN4CCC[C@H](C)C4)cc3[S+](C)[O-])C2=O)n1 (stereo partly drawn) [Compound 180, 2-[6-(ethylamino)-4-{3-[(4-methyl-1,2,4-triazol-3-yl)methyl]oxetan-3-yl}pyridin-2-yl]-4-methanesulfinyl-6-{[(3S)-3-methylpiperidin-1-yl]methyl}-3H-isoindol-1-one]	100 to 1000 nM
